From ChEMBL document CHEMBL5678816, “A Next-Generation TRK Kinase Inhibitor Overcomes Acquired Resistance to Prior TRK Kinase Inhibition in Patients with TRK Fusion-Positive Solid Tumors” (Cancer Discov, 2017)
Activity calls are given as the source filed them. The rule behind the calls is not given here.

Tests used:
[1] = target: Tyrosine-protein kinase BTK (Homo sapiens) (UniProt Q06187); assay: Inhibition of BTK (unknown origin) at 1 uM in presence of ATP relative to control; values are per cent of control
[2] = target: Proto-oncogene tyrosine-protein kinase ROS (Homo sapiens) (UniProt P08922); assay: Inhibition of Ros (unknown origin) at 1 uM in presence of ATP relative to control
[3] = target: CDK6/cyclin D3 (Homo sapiens) (UniProt P30281+Q00534); assay: Inhibition of CDK6/cyclinD3 (unknown origin) at 1 uM in presence of ATP relative to control; values are per cent of control
[4] = target: Ephrin type-B receptor 1 (Homo sapiens) (UniProt P54762); assay: Inhibition of EphB1 (unknown origin) at 1 uM in presence of ATP relative to control; values are per cent of control
Sequence of Ephrin type-B receptor 1 (Homo sapiens) (P54762 whole entry): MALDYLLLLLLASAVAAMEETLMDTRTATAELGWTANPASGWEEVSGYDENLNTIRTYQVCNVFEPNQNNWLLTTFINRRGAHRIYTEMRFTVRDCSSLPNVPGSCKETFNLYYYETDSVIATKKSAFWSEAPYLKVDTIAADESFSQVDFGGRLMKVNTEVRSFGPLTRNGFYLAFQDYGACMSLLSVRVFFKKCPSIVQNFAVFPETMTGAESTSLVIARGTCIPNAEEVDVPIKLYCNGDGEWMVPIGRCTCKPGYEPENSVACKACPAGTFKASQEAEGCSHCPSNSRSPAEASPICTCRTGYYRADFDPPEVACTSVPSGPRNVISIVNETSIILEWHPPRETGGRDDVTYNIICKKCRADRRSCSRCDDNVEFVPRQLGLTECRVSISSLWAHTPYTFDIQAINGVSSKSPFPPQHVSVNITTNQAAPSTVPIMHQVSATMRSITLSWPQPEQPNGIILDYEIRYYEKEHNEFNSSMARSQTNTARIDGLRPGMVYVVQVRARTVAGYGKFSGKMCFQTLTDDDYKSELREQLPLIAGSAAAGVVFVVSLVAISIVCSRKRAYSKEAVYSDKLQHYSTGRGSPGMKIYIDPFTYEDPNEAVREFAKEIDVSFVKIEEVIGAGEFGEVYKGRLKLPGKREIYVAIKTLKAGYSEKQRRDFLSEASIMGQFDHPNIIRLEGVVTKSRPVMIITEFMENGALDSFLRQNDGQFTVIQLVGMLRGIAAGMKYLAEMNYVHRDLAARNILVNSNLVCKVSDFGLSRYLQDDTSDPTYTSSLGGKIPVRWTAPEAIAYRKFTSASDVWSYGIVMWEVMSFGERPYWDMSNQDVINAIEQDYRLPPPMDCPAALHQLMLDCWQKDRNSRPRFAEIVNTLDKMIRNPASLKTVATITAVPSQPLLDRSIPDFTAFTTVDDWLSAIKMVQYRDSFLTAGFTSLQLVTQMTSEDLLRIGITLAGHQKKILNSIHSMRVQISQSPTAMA

[5] = target: Tyrosine-protein kinase Blk (Homo sapiens) (UniProt P51451); assay: Inhibition of BLK (unknown origin) at 1 uM in presence of ATP relative to control; values are per cent of control
COR-L105 = assay: Inhibition of cell proliferation in human COR-L105 cells upto 10 umol/L incubated for 72 hrs by DAPI staining based analysis; assay type: functional; conditions: dose <= 10.0 µmol/L
KPL-1 = assay: Inhibition of cell proliferation in human KPL-1 cells upto 10 umol/L incubated for 72 hrs by DAPI staining based analysis; assay type: functional; conditions: dose <= 10.0 µmol/L
[6] = target: Tyrosine-protein kinase ITK/TSK (Homo sapiens) (UniProt Q08881); assay: Inhibition of ITK (unknown origin) at 1 uM in presence of ATP relative to control; values are per cent of control
[7] = target: Protein kinase C beta type (Homo sapiens) (UniProt P05771); assay: Inhibition of PKCbetall (unknown origin) at 1 uM in presence of ATP relative to control; values are per cent of control
[8] = target: cGMP-dependent protein kinase 1 (Homo sapiens) (UniProt Q13976); assay: Inhibition of PRKG1alpha (unknown origin) at 1 uM in presence of ATP relative to control; values are per cent of control
[9] = target: Serine/threonine-protein kinase Nek2 (Homo sapiens) (UniProt P51955); assay: Inhibition of NEK2 (unknown origin) at 1 uM in presence of ATP relative to control; values are per cent of control
[10] = target: Serine/threonine-protein kinase PLK1 (Homo sapiens) (UniProt P53350); assay: Inhibition of Plk1 (unknown origin) at 1 uM in presence of ATP relative to control; values are per cent of control
[11] = target: CDK9/cyclin T1 (Homo sapiens) (UniProt O60563+P50750); assay: Inhibition of CDK9/cyclinT1 (unknown origin) at 1 uM in presence of ATP relative to control; values are per cent of control
NIH3T3 = assay: Antitumor activity against mouse NIH3T3 cells harboring extracellular domain deleted TRKA implanted in nu/nu NCr mouse assessed as inhibition of tumor growth at 30 to 300 mg/kg, po administered twice daily for 10 days; assay type: functional, organism-based; conditions: dose 30-300 mg/kg, time 10.0 day
SCC-4 = assay: Inhibition of cell proliferation in human SCC-4 cells upto 10 umol/L incubated for 72 hrs by DAPI staining based analysis; assay type: functional; conditions: dose <= 10.0 µmol/L
[12] = target: Serine/threonine-protein kinase WNK2 (Homo sapiens) (UniProt Q9Y3S1); assay: Inhibition of WNK2 (unknown origin) at 1 uM in presence of ATP relative to control; values are per cent of control
Sequence of Serine/threonine-protein kinase WNK2 (Homo sapiens) (Q9Y3S1 whole entry): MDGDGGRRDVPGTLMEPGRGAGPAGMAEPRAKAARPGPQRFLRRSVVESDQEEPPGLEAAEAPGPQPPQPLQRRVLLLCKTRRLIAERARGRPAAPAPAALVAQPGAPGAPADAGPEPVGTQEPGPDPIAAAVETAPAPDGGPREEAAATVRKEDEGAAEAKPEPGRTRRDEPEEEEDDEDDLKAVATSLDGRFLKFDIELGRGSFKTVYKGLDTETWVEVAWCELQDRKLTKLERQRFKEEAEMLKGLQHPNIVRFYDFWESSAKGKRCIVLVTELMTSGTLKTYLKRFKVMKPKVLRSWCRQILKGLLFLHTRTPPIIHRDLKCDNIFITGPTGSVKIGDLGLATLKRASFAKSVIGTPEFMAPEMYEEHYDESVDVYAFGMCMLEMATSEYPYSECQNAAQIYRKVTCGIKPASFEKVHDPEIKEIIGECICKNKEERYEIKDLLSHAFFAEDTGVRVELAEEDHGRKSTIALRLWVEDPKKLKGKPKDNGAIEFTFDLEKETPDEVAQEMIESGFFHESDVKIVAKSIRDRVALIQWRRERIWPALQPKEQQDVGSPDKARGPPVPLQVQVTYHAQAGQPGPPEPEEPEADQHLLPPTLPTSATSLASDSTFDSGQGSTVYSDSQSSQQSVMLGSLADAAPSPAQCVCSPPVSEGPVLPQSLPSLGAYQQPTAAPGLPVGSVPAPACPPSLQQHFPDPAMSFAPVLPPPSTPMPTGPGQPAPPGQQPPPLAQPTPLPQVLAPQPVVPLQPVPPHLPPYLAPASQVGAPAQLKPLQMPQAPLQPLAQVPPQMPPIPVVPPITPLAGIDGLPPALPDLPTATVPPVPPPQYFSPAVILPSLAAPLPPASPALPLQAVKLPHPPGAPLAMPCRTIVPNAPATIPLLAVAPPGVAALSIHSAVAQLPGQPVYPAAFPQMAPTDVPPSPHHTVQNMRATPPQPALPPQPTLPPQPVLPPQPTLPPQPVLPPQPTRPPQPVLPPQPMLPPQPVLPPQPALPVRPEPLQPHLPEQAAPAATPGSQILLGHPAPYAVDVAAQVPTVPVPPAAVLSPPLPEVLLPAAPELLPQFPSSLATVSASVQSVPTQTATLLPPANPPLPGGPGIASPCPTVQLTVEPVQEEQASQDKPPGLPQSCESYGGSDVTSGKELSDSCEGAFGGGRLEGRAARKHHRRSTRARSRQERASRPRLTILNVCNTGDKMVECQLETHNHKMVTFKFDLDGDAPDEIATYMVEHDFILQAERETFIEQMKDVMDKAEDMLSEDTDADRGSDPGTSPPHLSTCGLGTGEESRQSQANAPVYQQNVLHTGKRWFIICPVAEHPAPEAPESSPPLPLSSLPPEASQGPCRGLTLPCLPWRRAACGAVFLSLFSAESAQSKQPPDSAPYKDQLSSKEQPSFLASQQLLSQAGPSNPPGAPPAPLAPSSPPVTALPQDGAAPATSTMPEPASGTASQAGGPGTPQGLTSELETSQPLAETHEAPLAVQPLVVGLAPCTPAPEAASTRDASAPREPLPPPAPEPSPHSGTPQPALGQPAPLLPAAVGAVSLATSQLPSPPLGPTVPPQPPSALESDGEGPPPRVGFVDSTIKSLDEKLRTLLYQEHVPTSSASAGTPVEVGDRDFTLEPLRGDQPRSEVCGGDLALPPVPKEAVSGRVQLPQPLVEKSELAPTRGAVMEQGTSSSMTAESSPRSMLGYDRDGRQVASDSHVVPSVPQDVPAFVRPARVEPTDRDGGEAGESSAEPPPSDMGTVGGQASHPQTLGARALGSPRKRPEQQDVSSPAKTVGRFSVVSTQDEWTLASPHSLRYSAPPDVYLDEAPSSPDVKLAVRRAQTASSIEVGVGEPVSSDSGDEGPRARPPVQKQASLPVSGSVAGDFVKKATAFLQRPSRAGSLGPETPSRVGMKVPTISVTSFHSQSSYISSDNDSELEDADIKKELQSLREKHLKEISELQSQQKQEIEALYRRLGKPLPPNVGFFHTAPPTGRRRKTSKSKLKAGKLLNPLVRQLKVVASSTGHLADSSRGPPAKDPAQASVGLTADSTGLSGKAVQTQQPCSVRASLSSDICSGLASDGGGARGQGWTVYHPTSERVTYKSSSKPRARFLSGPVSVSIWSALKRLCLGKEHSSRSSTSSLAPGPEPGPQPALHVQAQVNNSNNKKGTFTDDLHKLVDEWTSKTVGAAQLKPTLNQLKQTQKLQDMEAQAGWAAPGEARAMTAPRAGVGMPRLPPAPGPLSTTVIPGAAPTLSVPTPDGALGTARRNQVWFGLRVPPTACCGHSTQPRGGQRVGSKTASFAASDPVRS

[13] = target: Dual specificity mitogen-activated protein kinase kinase 6 (Homo sapiens) (UniProt P52564); assay: Inhibition of MKK6 (unknown origin) at 1 uM in presence of ATP relative to control; values are per cent of control
Sequence of Dual specificity mitogen-activated protein kinase kinase 6 (Homo sapiens) (P52564 whole entry): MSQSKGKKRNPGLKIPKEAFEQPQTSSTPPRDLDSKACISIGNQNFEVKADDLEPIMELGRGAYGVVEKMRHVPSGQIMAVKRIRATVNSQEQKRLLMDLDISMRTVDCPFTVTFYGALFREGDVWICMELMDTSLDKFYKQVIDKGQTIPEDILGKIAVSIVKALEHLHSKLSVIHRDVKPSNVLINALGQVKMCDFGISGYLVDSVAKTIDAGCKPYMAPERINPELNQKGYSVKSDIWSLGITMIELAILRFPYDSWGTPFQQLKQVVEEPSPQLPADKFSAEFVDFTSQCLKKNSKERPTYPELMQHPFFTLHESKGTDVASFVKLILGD

[14] = target: SRSF protein kinase 1 (Homo sapiens) (UniProt Q96SB4); assay: Inhibition of SRPK1 (unknown origin) at 1 uM in presence of ATP relative to control; values are per cent of control
MZ-CRC-1 = assay: Inhibition of cell proliferation in human MZ-CRC-1 cells upto 10 umol/L incubated for 72 hrs by DAPI staining based analysis; assay type: functional; conditions: dose <= 10.0 µmol/L
[15] = target: Serine/threonine-protein kinase ULK3 (Homo sapiens) (UniProt Q6PHR2); assay: Inhibition of ULK3 (unknown origin) at 1 uM in presence of ATP relative to control; values are per cent of control
[16] = target: Interleukin-1 receptor-associated kinase 4 (Homo sapiens) (UniProt Q9NWZ3); assay: Inhibition of IRAK4 (unknown origin) at 1 uM in presence of ATP relative to control; values are per cent of control
NCI-H292 = assay: Inhibition of cell proliferation in human NCI-H292 cells upto 10 umol/L incubated for 72 hrs by DAPI staining based analysis; assay type: functional; conditions: dose <= 10.0 µmol/L
[17] = target: Death-associated protein kinase 2 (Homo sapiens) (UniProt Q9UIK4); assay: Inhibition of DAPK2 (unknown origin) at 1 uM in presence of ATP relative to control; values are per cent of control
[18] = target: Serine/threonine-protein kinase Sgk2 (Homo sapiens) (UniProt Q9HBY8); assay: Inhibition of SGK2 (unknown origin) at 1 uM in presence of ATP relative to control; values are per cent of control
[19] = target: Homeodomain-interacting protein kinase 1 (Homo sapiens) (UniProt Q86Z02); assay: Inhibition of HIPK1 (unknown origin) at 1 uM in presence of ATP relative to control; values are per cent of control
C32 = assay: Inhibition of cell proliferation in human C32 cells upto 10 umol/L incubated for 72 hrs by DAPI staining based analysis; assay type: functional; conditions: dose <= 10.0 µmol/L
SNU-16 = assay: Inhibition of cell proliferation in human SNU-16 cells upto 10 umol/L incubated for 72 hrs by DAPI staining based analysis; assay type: functional; conditions: dose <= 10.0 µmol/L
[20] = target: Epidermal growth factor receptor (Homo sapiens) (UniProt P00533); assay: Inhibition of EGFR (unknown origin) at 1 uM in presence of ATP relative to control; values are per cent of control
Sequence of Epidermal growth factor receptor (Homo sapiens) (P00533 whole entry): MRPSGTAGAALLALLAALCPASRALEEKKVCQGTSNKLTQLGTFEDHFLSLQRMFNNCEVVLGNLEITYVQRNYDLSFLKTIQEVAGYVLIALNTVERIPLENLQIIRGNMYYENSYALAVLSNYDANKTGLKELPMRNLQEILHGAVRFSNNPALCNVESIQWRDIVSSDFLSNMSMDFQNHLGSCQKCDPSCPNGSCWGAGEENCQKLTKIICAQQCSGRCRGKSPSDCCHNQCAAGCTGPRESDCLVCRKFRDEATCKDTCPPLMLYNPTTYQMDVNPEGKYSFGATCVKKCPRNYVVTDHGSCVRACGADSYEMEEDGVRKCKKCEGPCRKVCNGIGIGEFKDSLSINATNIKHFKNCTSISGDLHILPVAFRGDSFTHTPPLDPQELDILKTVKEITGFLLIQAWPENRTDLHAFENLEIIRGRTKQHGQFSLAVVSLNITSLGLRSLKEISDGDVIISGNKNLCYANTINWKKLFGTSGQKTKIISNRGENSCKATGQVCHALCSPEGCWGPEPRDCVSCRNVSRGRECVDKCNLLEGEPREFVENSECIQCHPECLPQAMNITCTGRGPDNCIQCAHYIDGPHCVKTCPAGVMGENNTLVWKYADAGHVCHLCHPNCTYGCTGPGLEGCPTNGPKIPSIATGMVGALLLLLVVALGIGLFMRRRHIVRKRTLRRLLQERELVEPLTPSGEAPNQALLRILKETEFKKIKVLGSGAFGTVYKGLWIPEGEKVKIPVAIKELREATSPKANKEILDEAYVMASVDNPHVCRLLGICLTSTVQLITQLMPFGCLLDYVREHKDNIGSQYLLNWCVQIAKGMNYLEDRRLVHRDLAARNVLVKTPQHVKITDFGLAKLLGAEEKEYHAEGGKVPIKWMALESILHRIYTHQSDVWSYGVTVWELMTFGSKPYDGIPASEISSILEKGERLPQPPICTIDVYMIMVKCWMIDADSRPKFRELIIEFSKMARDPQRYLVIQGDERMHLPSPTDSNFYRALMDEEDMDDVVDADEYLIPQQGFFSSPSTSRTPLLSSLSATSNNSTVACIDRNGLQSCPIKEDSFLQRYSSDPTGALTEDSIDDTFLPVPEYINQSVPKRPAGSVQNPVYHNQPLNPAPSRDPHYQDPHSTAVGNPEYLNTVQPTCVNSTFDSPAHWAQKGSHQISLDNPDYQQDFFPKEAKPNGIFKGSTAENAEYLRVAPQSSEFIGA

[21] = target: ALK tyrosine kinase receptor (Homo sapiens) (UniProt Q9UM73); assay: Inhibition of ALK (unknown origin) at 1 uM in presence of ATP relative to control; values are per cent of control

residual activity [1]: 87%
inhibition [2]: 12%
residual activity [3]: 110%
residual activity [4]: 112%
residual activity [5]: 108%
residual activity [6]: 90.5%
residual activity [7]: 90.5%
residual activity [8]: 110%
residual activity [9]: 117%
residual activity [10]: 104%
residual activity [11]: 110%
residual activity [12]: 128%
residual activity [13]: 100%
residual activity [14]: 104%
residual activity [15]: 95.5%
residual activity [16]: 95%
residual activity [18]: 136%
residual activity [19]: 106%
residual activity [20]: 103%
residual activity [21]: 50%
SMILES: C[C@@H]1CCc2ncc(F)cc2[C@H]2CCCN2c2ccn3ncc(c3n2)C(=O)N1 [SELITRECTINIB]
inhibition (COR-L105): inactive
inhibition (KPL-1): inactive
Activity (NIH3T3): Active
inhibition (SCC-4): inactive
inhibition (MZ-CRC-1): inactive
inhibition (NCI-H292): inactive
residual activity [17]: 94%
inhibition (C32): inactive
inhibition (SNU-16): inactive
